Data on six compounds can be found in the NIST ThermoML archive (doi:10.1021/acs.jced.9b00173).

± gives the expanded uncertainty stated by the source.

The nature of this data set: xn = mol fraction of the nth substance listed. The note with it: 303.15 K, 101.3 kPa, Liquid, Concentric cylinders viscometry.

By viscosity is commonly meant the internal friction of a fluid under shear. In the case of `c1nc[nH]n1` [1H-1,2,4-triazole] + CCCC[P+](CCCC)(CCCC)CCCC.[Cl-], the viscosity (x1 = 0.5) came out at 67.23 ± 2 mPa·s.

Turning to `c1nnn[nH]1` [1H-tetrazole] + CCCC[N+](CCCC)(CCCC)CCCC.[Br-], the viscosity (x1 = 0.5) came to 279.15 ± 15 mPa·s.

`c1nnn[nH]1` [1H-tetrazole] + CCCC[P+](CCCC)(CCCC)CCCC.[Cl-]: the viscosity (x1 = 0.5) came out at 40.22 ± 1.5 mPa·s.

In the case of `c1nnn[nH]1` [1H-tetrazole] + CCCC[P+](CCCC)(CCCC)CCCC.[Br-], the viscosity (x1 = 0.5) was 68.26 ± 2.1 mPa·s.

Consider `c1nnn[nH]1` [1H-tetrazole] + CCCC[N+](CCCC)(CCCC)CCCC.[Cl-], for which the viscosity (x1 = 0.5) amounted to 87.88 ± 2.8 mPa·s.

For the compound `CCCC[P+](CCCC)(CCCC)CCCC.[Cl-]` [tetrabutylphosphonium chloride] + c1c[nH]cn1, the viscosity (x2 = 0.5) was 52.34 ± 1.6 mPa·s.
